# Measured values taken from ChEMBL document CHEMBL5096203, “Discovery of 6-[(3S,4S)-4-Amino-3-methyl-2-oxa-8-azaspiro[4.5]decan-8-yl]-3-(2,3-dichlorophenyl)-2-methyl-3,4-dihydropyrimidin-4-one (IACS-15414), a Potent and Orally Bioavailable SHP2 Inhibitor” (J Med Chem, 2021).
# Tests used:
# [1] = Clearance in iv dosed Cynomolgus monkey measured at 0.083 to 24 hrs by LC-MS/MS analysis; format: ADME, organism-based, Macaca fascicularis; conditions: in vivo, time 0.083-24 hrs
# [2] = Clearance in iv dosed Beagle dog measured at 0.083 to 24 hrs by LC-MS/MS analysis; format: ADME, organism-based, Canis lupus familiaris; conditions: in vivo, time 0.083-24 hrs
# [3] = Clearance in iv dosed Sprague-Dawley rat measured at 0.083 to 24 hrs by LC-MS/MS analysis; format: ADME, organism-based; conditions: in vivo, time 0.083-24 hrs
# [4] = Clearance in iv dosed CD-1 mouse measured at 0.083 to 24 hrs by LC-MS/MS analysis; format: ADME, organism-based; conditions: in vivo, time 0.083-24 hrs
# [5] = Metabolic stability in rat microsome assessed as intrinsic clearance incubated for 45 mins in presence of NADPH regenerating system by LC-MS/MS analysis; format: ADME; conditions: microsomes
# [6] = Metabolic stability in human microsome assessed as intrinsic clearance incubated for 45 mins in presence of NADPH regenerating system by LC-MS/MS analysis; format: ADME; conditions: microsomes
# [7] = Permeability of compound across apical to basolateral side in dog MDCK-MDR1 cells; format: ADME, cell-based, Canis lupus familiaris
# [8] = Permeability of compound across basolateral to apical side in dog MDCK-MDR1 cells; format: ADME, cell-based, Canis lupus familiaris
# [9] = Metabolic stability in mouse microsome assessed as intrinsic clearance incubated for 45 mins in presence of NADPH regenerating system by LC-MS/MS analysis; format: ADME; conditions: microsomes, read-out: CLH
# [10] = Metabolic stability in Beagle dog microsome assessed as intrinsic clearance incubated for 45 mins in presence of NADPH regenerating system by LC-MS/MS analysis; format: ADME, Canis lupus familiaris; conditions: microsomes, read-out: CLH
# [11] = Metabolic stability in monkey microsome assessed as intrinsic clearance incubated for 45 mins in presence of NADPH regenerating system by LC-MS/MS analysis; format: ADME, Macaca mulatta; conditions: rhesus monkey, microsomes, read-out: CLH
# [12] = Volume of distribution at steady state in CD-1 mouse measured at 0.083 to 24 hrs by LC-MS/MS analysis; format: ADME; conditions: in vivo, time 0.083-24 hrs, read-out: Vdss
# [13] = Volume of distribution at steady state in Sprague-Dawley rat measured at 0.083 to 24 hrs by LC-MS/MS analysis; format: ADME; conditions: in vivo, time 0.083-24 hrs, read-out: Vdss
# [14] = Volume of distribution at steady state in Beagle dog measured at 0.083 to 24 hrs by LC-MS/MS analysis; format: ADME, Canis lupus familiaris; conditions: in vivo, time 0.083-24 hrs, read-out: Vdss
# [15] = Volume of distribution at steady state in Cynomolgus monkey measured at 0.083 to 24 hrs by LC-MS/MS analysis; format: ADME, Macaca fascicularis; conditions: in vivo, time 0.083-24 hrs, read-out: Vdss
# [16] = Half life in iv dosed CD-1 mouse measured at 0.083 to 24 hrs by LC-MS/MS analysis; format: ADME, organism-based; conditions: in vivo, time 0.083-24 hrs
# [17] = Half life in iv dosed Sprague-Dawley rat measured at 0.083 to 24 hrs by LC-MS/MS analysis; format: ADME, organism-based; conditions: in vivo, time 0.083-24 hrs
# [18] = Half life in iv dosed Beagle dog measured at 0.083 to 24 hrs by LC-MS/MS analysis; format: ADME, organism-based, Canis lupus familiaris; conditions: in vivo, time 0.083-24 hrs
# [19] = Half life in iv dosed Cynomolgus monkey measured at 0.083 to 24 hrs by LC-MS/MS analysis; format: ADME, organism-based, Macaca fascicularis; conditions: in vivo, time 0.083-24 hrs
# [20] = Oral bioavailability in CD-1 mouse measured at 0.083 to 24 hrs by LC-MS/MS analysis; format: ADME, organism-based; conditions: in vivo, time 0.083-24 hrs
# [21] = Oral bioavailability in […] Sprague-Dawley rat measured at 0.083 to 24 hrs by LC-MS/MS analysis; format: ADME, organism-based; conditions: in vivo, time 0.083-24 hrs
# [22] = Oral bioavailability in Beagle dog measured at 0.083 to 24 hrs by LC-MS/MS analysis; format: ADME, organism-based, Canis lupus familiaris; conditions: in vivo, time 0.083-24 hrs
# [23] = Oral bioavailability in Cynomolgus monkey measured at 0.083 to 24 hrs by LC-MS/MS analysis; format: ADME, organism-based, Macaca fascicularis; conditions: in vivo, time 0.083-24 hrs
# [24] = Dissociation constant, pKa of the compound; format: physicochemical
# [25] = Permeability of compound across apical to basolateral side in dog wild type MDCK cells; format: ADME, cell-based, Canis lupus familiaris; conditions: read-out: permeability
# [26] = Permeability of compound across basolateral to apical side in dog wild type MDCK cells; format: ADME, cell-based, Canis lupus familiaris; conditions: read-out: permeability
# [27] = Permeability of compound across apical to basolateral side in dog wild type MDCK-MDR1 cells; format: ADME, cell-based, Canis lupus familiaris; conditions: read-out: permeability
# [28] = Permeability of compound across basolateral to apical side in dog wild type MDCK-MDR1 cells; format: ADME, cell-based, Canis lupus familiaris; conditions: read-out: permeability
# [29] = Clearance in Sprague-Dawley rat 0.3 mg/kg, iv measured at 0.083 to 24 hrs by LC-MS/MS analysis; format: ADME, organism-based; conditions: in vivo, time 0.083-24 hrs
# [30] = Volume of distribution at steady state in Sprague-Dawley rat 3 mg/kg, po or 3 mg/kg, iv measured at 0.083 to 24 hrs by LC-MS/MS analysis; format: ADME, organism-based; conditions: in vivo, time 0.083-24 hrs
# [31] = Half life in Sprague-Dawley rat 0.3 mg/kg, iv measured at 0.083 to 24 hrs by LC-MS/MS analysis; format: ADME, organism-based; conditions: in vivo, time 0.083-24 hrs
# [32] = AUC (0 to 24 hrs) in Sprague-Dawley rat 0.3 mg/kg, iv measured at 0.083 to 24 hrs by LC-MS/MS analysis; format: ADME, organism-based; design: time lower 0.083 hrs, dose 0.3 mg/kg, time upper 24 hrs, route iv; conditions: in vivo
# [33] = Oral bioavailability in Sprague-Dawley rat 3 mg/kg measured at 0.083 to 24 hrs by LC-MS/MS analysis; format: ADME, organism-based; conditions: in vivo, time 0.083-24 hrs
# [34] = Oral bioavailability in Sprague-Dawley rat 0.3 mg/kg measured at 0.083 to 24 hrs by LC-MS/MS analysis; format: ADME, organism-based; conditions: in vivo, time 0.083-24 hrs
# [35] = Clearance in Sprague-Dawley rat 1 mg/kg, iv measured at 0.083 to 24 hrs by LC-MS/MS analysis; format: ADME, organism-based; conditions: in vivo, time 0.083-24 hrs
# [36] = Volume of distribution at steady state in Sprague-Dawley rat 3 mg/kg, po or 1 mg/kg, iv measured at 0.083 to 24 hrs by LC-MS/MS analysis; format: ADME, organism-based; conditions: in vivo, time 0.083-24 hrs
# [37] = Half life in Sprague-Dawley rat 1 mg/kg, iv measured at 0.083 to 24 hrs by LC-MS/MS analysis; format: ADME, organism-based; conditions: in vivo, time 0.083-24 hrs
# [38] = AUC (0 to 24 hrs) in Sprague-Dawley rat 1 mg/kg, iv measured at 0.083 to 24 hrs by LC-MS/MS analysis; format: ADME, organism-based; design: dose 1 mg/kg, time 0.083-24 hrs, route iv; conditions: in vivo
# [39] = Oral bioavailability in Sprague-Dawley rat 3 mg/kg, iv measured at 0.083 to 24 hrs by LC-MS/MS analysis; format: ADME, organism-based; conditions: in vivo, time 0.083-24 hrs
# Homo sapiens [40] = species on record: Homo sapiens; assay: Binding affinity to human SHP2 E76K mutant assessed as change in enthalpy by isothermal titration calorimetry assay
# Homo sapiens [41] = species on record: Homo sapiens; assay: Binding affinity to human SHP2 E76K mutant assessed as change in entropy by isothermal titration calorimetry assay
smiles,measurement,setting,value
Cc1nc(N2CCC3(CC2)CO[C@@H](C)[C@H]3N)c(Cl)c(=O)n1-c1cccc(Cl)c1Cl,clearance,[1],8.3 mL/min/kg
same,clearance,[2],9.2 mL/min/kg
same,clearance,[3],41.3 mL/min/kg
same,clearance,[4],11.6 mL/min/kg
same,CLint scaled,[5],72 mL/min/kg
same,CLint scaled,[6]; read-out: CLH,10 mL/min/kg
same,Papp A→B,[7],18 ×10⁻⁶ cm/s
same,Papp B→A,[8],19 ×10⁻⁶ cm/s
same,CLint scaled,[9],37 mL/min/kg
same,CLint scaled,[10],529 mL/min/kg
same,CLint scaled,[11],74 mL/min/kg
same,Vd,[12],4.6 L/kg
same,Vd,[13],3.7 L/kg
same,Vd,[14],3.5 L/kg
same,Vd,[15],4.5 L/kg
same,half-life,[16],6 h
same,half-life,[17],1.8 h
same,half-life,[18],5.5 h
same,half-life,[19],7.3 h
same,bioavailability,[20],119%
same,bioavailability,[21],38%
same,bioavailability,[22],88%
same,bioavailability,[23],53%
CNc1nccc(-c2n[nH]c3nc(N4CCC(C)(N)CC4)cnc23)c1Cl,pKa,[24],10.4
same,Papp A→B,[25],4.2 ×10⁻⁶ cm/s
same,Papp B→A,[26],8 ×10⁻⁶ cm/s
same,Papp A→B,[27],2.1 ×10⁻⁶ cm/s
same,Papp B→A,[28],28 ×10⁻⁶ cm/s
same,clearance,[29],37 mL/min/kg
same,Vdss,[30],12.9 L/kg
same,half-life,[31],4.8 h
same,AUC(0-t),[32],0.314 µM·h
same,bioavailability,[33],38%
N[C@@H]1CCCC12CCN(c1nc3[nH]nc(-c4cccc(Cl)c4Cl)c3c(=O)[nH]1)CC2,CLint scaled,[5],26 mL/min/kg
same,CLint scaled,[6]; read-out: CL,2 mL/min/kg
same,Papp A→B,[25],0.27 ×10⁻⁶ cm/s
same,Papp B→A,[26],3.64 ×10⁻⁶ cm/s
same,Papp A→B,[27],0.3 ×10⁻⁶ cm/s
same,Papp B→A,[28],9.5 ×10⁻⁶ cm/s
same,clearance,[29],12 mL/min/kg
same,Vdss,[30],2.2 L/kg
same,half-life,[31],2.7 h
same,bioavailability,[34],3%
C[C@@H]1OCC2(CCN(c3cnc4c(-c5cccc(Cl)c5Cl)n[nH]c4n3)CC2)[C@@H]1N,Papp A→B,[25],9 ×10⁻⁶ cm/s
same,Papp B→A,[26],10 ×10⁻⁶ cm/s
same,Papp A→B,[27],6.4 ×10⁻⁶ cm/s
same,Papp B→A,[28],10.2 ×10⁻⁶ cm/s
Cc1nc(N2CCC3(CC2)CO[C@@H](C)[C@H]3N)cc(=O)n1-c1cccc(Cl)c1Cl (stereo in doubt),clearance,[1],4.2 mL/min/kg
same,clearance,[2],4.2 mL/min/kg
same,clearance,[3],5.8 mL/min/kg
same,clearance,[4],9.2 mL/min/kg
same,CLint scaled,[5],0.8 mL/min/kg
same,CLint scaled,[6]; read-out: CL,0.7 mL/min/kg
same,Papp A→B,[7],12 ×10⁻⁶ cm/s
same,Papp B→A,[8],32 ×10⁻⁶ cm/s
same,CLint scaled,[9],28 mL/min/kg
same,CLint scaled,[10],17 mL/min/kg
same,CLint scaled,[11],21 mL/min/kg
same,Vd,[12],2.6 L/kg
same,Vd,[13],2.5 L/kg
same,Vd,[14],2.9 L/kg
same,Vd,[15],3.4 L/kg
same,half-life,[16],3.5 h
same,half-life,[17],5.9 h
same,half-life,[18],8.6 h
same,half-life,[19],9.4 h
same,bioavailability,[20],99%
same,bioavailability,[21],80%
same,bioavailability,[22],106%
same,bioavailability,[23],89%
CC1(N)CCN(c2cnc3c(-c4cccc(Cl)c4Cl)n[nH]c3n2)CC1,pKa,[24],10.4
same,Papp A→B,[25],6 ×10⁻⁶ cm/s
same,Papp B→A,[26],6.8 ×10⁻⁶ cm/s
same,Papp A→B,[27],6 ×10⁻⁶ cm/s
same,Papp B→A,[28],8.5 ×10⁻⁶ cm/s
same,CL,[35],70%
same,Vdss,[36],21 L/kg
same,half-life,[37],13 h
same,AUC(0-t),[38],2 µM·h
same,bioavailability,[39],70%
same,deltaH,Homo sapiens [40],-3.67 kcal/mol
same,-TdeltaS,Homo sapiens [41],-5.44 kcal/mol
CCNc1nccc(-c2n[nH]c3nc(N4CCC5(CC4)CO[C@@H](C)[C@H]5N)cnc23)c1Cl,pKa,[24],9.3
same,Papp A→B,[25],12.4 ×10⁻⁶ cm/s
same,Papp B→A,[26],25 ×10⁻⁶ cm/s
same,Papp A→B,[27],8.6 ×10⁻⁶ cm/s
same,Papp B→A,[28],40.7 ×10⁻⁶ cm/s
